Measurements published in publication PMC6934184, “Selective DNA-PKcs inhibition extends the therapeutic index of localized radiotherapy and chemotherapy” (The Journal of Clinical Investigation, 2019).

Molecular target: T1, PRKACG (PRKAC gamma) (Homo sapiens, UniProt P22612)
T1 construct: purchased Thermo Fisher Scientific (Life Technologies) SelectScreen
Experiment: SelectScreen LanthaScreen
Assay type: binding
Settings: read-out: % displacement
Outline: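 NU5455 was profiled across the SelectScreen Broad panel of kinase activity and binding assays. Z'LYTE reactions such as CSF1R ran at apparent Km ATP, while the Adapta CAMK1 assay used ATP listed as 10. Values are given as percent.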

T1 sequence (P22612 whole entry): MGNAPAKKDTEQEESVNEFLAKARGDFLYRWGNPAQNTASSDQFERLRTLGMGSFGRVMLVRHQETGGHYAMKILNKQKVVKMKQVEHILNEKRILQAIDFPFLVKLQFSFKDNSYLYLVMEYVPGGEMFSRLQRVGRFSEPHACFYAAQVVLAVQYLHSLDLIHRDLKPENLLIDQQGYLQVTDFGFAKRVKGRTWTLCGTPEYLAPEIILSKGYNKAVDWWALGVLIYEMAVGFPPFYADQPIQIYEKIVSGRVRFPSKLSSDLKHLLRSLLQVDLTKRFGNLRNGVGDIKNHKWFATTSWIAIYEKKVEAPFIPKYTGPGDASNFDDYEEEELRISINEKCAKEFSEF

In the case of `CN(C(=O)CN1CCOCC1)c1ccc2sc3c(-c4cccc5c(=O)cc(N6CC7CCC(C6)O7)oc45)cccc3c2c1` [NU5455], the inhibition at 1 µM is reported as -0.2%.
